# From patent US9981956B2, “Small molecule inhibitors of fibrosis” (THE CALIFORNIA INSTITUTE FOR BIOMEDICAL RESEARCH, priority 2013, dated 2018)
# pEC50: −log10 of the molar value.
# Tested on: fibroblast to myofibroblast transdifferentiation (primary human lung fibroblasts and primary rodent HSCs)
# Assay: High content imaging and western based assay of fibroblast to myofibroblast transdifferentiation (α-SMA)
# Assay type: cell-based
# Conditions: graded, TGF-β induced fibroblast to myofibroblast transdifferentiation
# Description: A high content imaging assay, based on α-SMA staining and cell morphological changes associated with fibroblast to myofibroblast transdifferentiation, was established using primary human lung fibroblasts and primary rodent HSCs. Conditions, involving serum starvation and subsequent TGF-β treatment, were identified that facilitate robust in vitro transdifferentiation in a miniaturized (384 well plate) format that is amenable to high throughput small molecule screening. A selective ALK-5 TGF-β1 receptor inhibitor (SB-431542) was used as a positive control. […] This assay was used to identify a hit compound (itraconazole) and was used to evaluate focused panels of itraconazole analogues generated from medicinal chemistry efforts.
# The activity of Itraconazole and its analogues was confirmed by analyzing changes in gene expression of multiple genes associated with fibroblast to myofibroblast transdifferentiation using biochemical methods (i.e., Western blot and RT-PCR). These 4-day assays were used to evaluate sets of 6 compounds at a time in 4-point dose response fashion.
# After 24 hour incubation, cells were treated with the indicated doses of itraconazole for 48 hours in the presence of 10 ng/mL of TGF-β1 in hepatic stellate medium. Following fixation and staining with an anti smooth muscle actin antibody, cell morphology was analyzed with a Cellomics cell insight imaging reader (FIG. 1 for representative images). Cells were analyzed for mean cellular area of a-SMA staining (FIG. 5a) or mean fluorescence intensity of SMA staining (FIG. 5b).
# After 24 incubation, medium was changed to assay medium containing TGF-β1 (10 ng/mL) and simultaneously treated with itraconazole (10 μM), SB431542 (10 μM) or vehicle control (FIG. 6).
row,Structure (SMILES),pEC50
1,CCC(C)n1ncn(-c2ccc(N3CCN(c4ccc(OC[C@H]5CO[C@@](Cn6cncn6)(c6ccc(F)cc6F)O5)cc4)CC3)cc2)c1=O (mixture of isomers) [Compound 7],4.52 to 5.30
2,CCC(C)n1ncn(-c2ccc(N3CCN(c4ccc(OC[C@@H]5CO[C@](Cn6nc7ccccc7n6)(c6ccc(Cl)cc6Cl)O5)cc4)CC3)cc2)c1=O (mixture of isomers) [Compound 17],4.52 to 5.30
3,CCC(C)n1ncn(-c2ccc(N3CCN(c4ccc(OC[C@@H]5CO[C@](Cn6nccn6)(c6ccc(Cl)cc6Cl)O5)cc4)CC3)cc2)c1=O (mixture of isomers) [Compound 18],4.52 to 5.30
4,"CC[C@@H]([C@H](C)O)n1ncn(-c2ccc(N3CCN(c4ccc(OC[C@@H]5CO[C@@](Cn6cncn6)(c6ccc(F)cc6F)C5)cc4)CC3)cc2)c1=O (racemic) [POS, reference compound]",4.52 to 5.30
5,CCC(C)n1cnn(-c2ccc(N3CCN(c4ccc(OC[C@@H]5CO[C@@](Cn6nccn6)(c6ccc(F)cc6F)O5)cc4)CC3)cc2)c1=O (stereo partly drawn) [Compound 3],4.52 to 5.30
6,CCC(C)n1cnn(-c2ccc(N3CCN(c4ccc(OC[C@@H]5CO[C@@](Cn6ccc(C)n6)(c6ccc(F)cc6F)O5)cc4)CC3)cc2)c1=O (stereo partly drawn) [Compound 4],4.52 to 5.30
7,CCC(C)n1cnn(-c2ccc(N3CCN(c4ccc(OC[C@@H]5CO[C@@](Cn6cnc(C)n6)(c6ccc(F)cc6F)O5)cc4)CC3)cc2)c1=O (stereo partly drawn) [Compound 5],4.52 to 5.30
8,CCC(C)n1ncn(-c2ccc(N3CCN(c4ccc(OC[C@@H]5CO[C@@](Cn6cncn6)(c6ccc(F)cc6F)O5)cc4)CC3)cc2)c1=O (stereo partly drawn) [Compound 6],5.30 to 6.30
9,CCC(C)n1cnn(-c2ccc(N3CCN(c4ccc(OC[C@@H]5CO[C@@](Cn6nnc7ccccc76)(c6ccc(F)cc6F)O5)cc4)CC3)cc2)c1=O (stereo partly drawn) [Compound 8],5.30 to 6.30
10,CCC(C)n1ncn(-c2ccc(N3CCN(c4ccc(OC[C@@H]5CO[C@@](Cn6cnc(Br)n6)(c6ccc(F)cc6F)O5)cc4)CC3)cc2)c1=O (stereo partly drawn) [Compound 9],4.52 to 5.30
11,CCC(C)n1ncn(-c2ccc(N3CCN(c4ccc(OC[C@@H]5CO[C@@](Cn6cnc(C(F)(F)F)n6)(c6ccc(F)cc6F)O5)cc4)CC3)cc2)c1=O (stereo partly drawn) [Compound 10],4.52 to 5.30
12,CCC(C)n1ncn(-c2ccc(N3CCN(c4ccc(OC[C@@H]5CO[C@@](Cn6nc(Br)nc6Br)(c6ccc(F)cc6F)O5)cc4)CC3)cc2)c1=O (stereo partly drawn) [Compound 11],4.52 to 5.30
13,CCC(C)n1cnn(-c2ccc(N3CCN(c4ccc(OC[C@@H]5CO[C@@](Cn6nc7ccccc7n6)(c6ccc(F)cc6F)O5)cc4)CC3)cc2)c1=O (stereo partly drawn) [Compound 12],4.52 to 5.30
14,CC(C)n1ncn(-c2ccc(N3CCN(c4ccc(OC[C@@H]5CO[C@@](Cn6cncn6)(c6ccc(F)cc6F)O5)cc4)CC3)cc2)c1=O [Compound 13],4.52 to 5.30
15,CC(C)Cn1ncn(-c2ccc(N3CCN(c4ccc(OC[C@@H]5CO[C@@](Cn6cncn6)(c6ccc(F)cc6F)O5)cc4)CC3)cc2)c1=O [Compound 14],4.52 to 5.30
16,CCC(C)n1cnn(-c2ccc(N3CCN(c4ccc(OC[C@@H]5CO[C@@](Cn6nc7ccccc7n6)(c6ccc(Cl)cc6Cl)O5)cc4)CC3)cc2)c1=O (stereo partly drawn) [Compound 16],4.52 to 5.30
17,CCC(C)n1ncn(-c2ccc(N3CCN(c4ccc(OC[C@@H]5CO[C@@](Cn6cnc7ccccc76)(c6ccc(Cl)cc6Cl)O5)cc4)CC3)cc2)c1=O (stereo partly drawn) [Compound 20],5.30 to 6.30
18,CCC(C)n1ncn(-c2ccc(N3CCN(c4ccc(OC[C@@H]5CO[C@@](Cn6nccn6)(c6ccc(Cl)cc6Cl)O5)cc4)CC3)cn2)c1=O (stereo partly drawn) [Compound 25],4.52 to 5.30
19,CC(O)C(C)n1ncn(-c2ccc(N3CCN(c4ccc(OC[C@@H]5CO[C@@](Cn6nccn6)(c6ccc(Cl)cc6Cl)O5)cc4)CC3)cc2)c1=O (stereo partly drawn) [Compound 28],5.30 to 6.30
20,CC(O)C(C)n1ncn(-c2ccc(N3CCN(c4ccc(OC[C@@H]5CO[C@@](Cc6ccnnc6)(c6ccc(Cl)cc6Cl)O5)cc4)CC3)cc2)c1=O (stereo partly drawn) [Compound 29],> 6.30
21,CCC(C)n1ncn(-c2ccc(N3CCN(c4ccc(OC[C@@H]5CO[C@@](Cn6nccn6)(c6cc(Cl)cc(Cl)c6)O5)cc4)CC3)cc2)c1=O (stereo partly drawn) [Compound 31],5.30 to 6.30
